Results reported in patent US20200164005A1, “PHARMACEUTICAL COMPOSITIONS OF A BILE ACID DERIVATIVE AND MICROBIOME AND USES THEREOF” (Intercept Pharmaceuticals, Inc., priority 2017, published 2020).

What was measured:
[1] = system: bacterial strains found in the human small intestine; experiment: Inhibition of bacterial growth by bile acids, microbroth dilution, optical density at 630 nm; assay type: cell-based; settings: aerobic or anaerobic
Procedure: The toxicity of several bile acids to various gut microbiome species was examined. Representative species were exposed to different bile acids at a range of concentrations under either aerobic or anaerobic condition, and the growth of the species at these concentrations was measured by determining the optical density of the culture.
Lactobacillus casei CP was purchased from Custom Probiotics Inc. (Glendale, Calif.) as L. casei Custom Probiotic Powder (strain confirmed by Sanger sequencing of the 16S gene). Pediococcus pentosaceus KE-99 was purchased from Probiohealth (Beverly Hills, Calif.) as KE-99 LACTO Tablet (strain confirmed by Sanger sequencing of the 16S gene). L. casei 393, Streptoccocus thermophilus LMD-9, Akkermansia muciniphila Muc, and Veillonella parvula Te3 were purchased from the American Type Culture Collection (ATCC, Manassas, Va.). Lactococcus lactis NZ9000 was purchased from BOCA Scientific (Boca Raton, Fla.). Escherichia coli Nissle was obtained from Dr. Mark Goulian (University of Pennsylvania, Philadelphia, Pa.).
L. casei, P. pentasaceus, and L. lactis were grown in de Man, Rogosa, and Sharpe (MRS) medium (Anaerobe Systems, Morgan Hill, Calif.); E. coli was grown in lysogeny broth (LB) medium (Fisher Scientific, USA); S. thermophilus and A. muciniphila were grown in brain heart infusion (BHI) medium (Fisher Scientific, USA and Anaerobe Systems, Morgan Hill, Calif.), and; V. parvula was grown in reinforced clostridial medium (Fisher Scientific, USA). Aerobic cultures were incubated at 37° C.; anaerobic cultures were incubated at 37° C. in an anaerobic glove box (Coy Laboratories, Grass Lake, Mich.).
Glycochenodeoxycholic, glycocholic, and taurocholic acids were purchased from Sigma Aldrich (St. Louis, Mo.). Obeticholic acid was provided by Intercept Pharmaceuticals, Inc. (New York, N.Y.).
Inhibition of bacterial growth by bile acids was determined by the microbroth dilution method. Plates were prepared with 100 uL of medium containing the appropriate concentrations of bile acid. Wells were inoculated with 1 uL of an overnight culture, covered, and incubated overnight (3 days for A. muciniphila and V. parvula, which are slow growing organisms). Growth was measured via optical density at 630 nm, and measurements were zeroed against wells containing the appropriate bile acid level with no bacteria. All tests were performed in triplicate. Data is expressed as the percent (%) reduction in growth, which was calculated against controls (i.e., no bile acids). The responses of representative species to different concentrations of bile acids are illustrated by the heat maps shown in FIGS. 53A-53D.

[2] = system: Lactococcus lactis, Streptococcus thermophilus, and Lactobacillus casei/paracasei; experiment: Minimal inhibitory concentrations (MIC) of bile acids and OCA, aerobic and anaerobic; assay type: cell-based; settings: millimolar range; aerobic and anaerobic
Text: FIGS. 58A-58B: Minimal inhibitory concentrations (MICs) of selected Gram-positive bacterial species in response treatment with two endogenous bile acids and OCA. […] N=3 per measurement. […] N=3 per measurement.
a (Begley et al., FEMS Microbiol Rev. 29, 625-651 (2005)), and conducted genomic analysis is consistent with the notion that specific Gram-positive taxa become proportionally more abundant during OCA administration due to enhanced proliferation. FXR-dependent inhibition of endogenous bile acid synthesis by OCA may reduce the growth inhibitory effects on Gram-positive bacterial species that are normally sensitive to bile acids. To determine if the three bacterial species with the greatest representation of pathways associated with OCA (FIG. 57A) are sensitive to bile acids, the species-specific minimal inhibitory concentrations (MIC) of the two most predominant bile acids in the human small intestine, glycochenodeoxycholic acid (GCDCA) and glycocholic acid (GCA) were determined (FIG. 58A). Since the environment of the small intestinal lumen may transition from an aerobic to anaerobic state along its length (He et al., Proceedings of the National Academy of Sciences of the United States of America, 96, 4586-4591 (1999)), MICs were determined under both aerobic and anaerobic conditions. […] Consistent with this notion, it has been shown that bile salt hydrolases (BSH), enzymes that are unique to bacteria resident in the mammalian gut where they can enhance bile acid tolerance (Begley et al., FEMS Microbiol Rev. 29, 625-651 (2005)), are missing from the genome of S. thermophilus, which is induced by OCA. It can be supported by showing that these species are sensitive to growth inhibition in vitro when exposed to physiologically-relevant concentrations of conjugated bile acids found in the small intestine. […] Since OCA is a bile acid analogue possibly capable of inhibiting bacterial growth, the MICs of OCA for the same bacterial species were determined (FIG. 58B). […] These findings support the notion that OCA treatment leads to the increased growth of bile acid sensitive bacterial taxa by suppressing endogenous bile acid synthesis.

Compound	growth inhibitory effects on various strains of gram positive bacteria [1]	growth of all three species at physiologically relevant concentrations [2]
C[C@H](CCC(=O)NCCS(=O)(=O)O)[C@H]1CC[C@H]2[C@@H]3[C@H](O)C[C@@H]4C[C@H](O)CC[C@]4(C)[C@H]3C[C@H](O)[C@]12C [TCA, taurocholic acid]	differential growth inhibitory effects	–
C[C@H](CCC(=O)NCC(=O)O)[C@H]1CC[C@H]2[C@@H]3[C@H](O)C[C@@H]4C[C@H](O)CC[C@]4(C)[C@H]3C[C@H](O)[C@]12C [GCA, glycocholic acid, reference compound]	differential growth inhibitory effects	significantly inhibited
CC(CCC(=O)NCC(=O)O)C1CCC2C3C(O)CC4CC(O)CCC4(C)C3CCC12C (centres unmarked) [GCDCA, glycochenodeoxycholic acid, reference compound]	differential growth inhibitory effects	significantly inhibited
